In ChEMBL document CHEMBL3232722, “Synthesis and kinase inhibitory activity of new sulfonamide derivatives of pyrazolo[4,3-e][1,2,4]triazines” (Eur J Med Chem, 2014):
Active and inactive are the calls of the source. No cut-off for these calls is given here.

Key:
MDA-MB-231 [1] = test: Ratio of IC50 for human MDA-MB-231 cells to IC50 for human K562 cells; assay type: functional
K562 [2] = test: Induction of apoptosis in human K562 cells assessed as increase in sub-diploid cell population at 10 to 100 uM after 24 hrs by propidium iodide staining based flow cytometry; assay type: functional
[3] = target: T1, Bcr/Abl fusion protein (Homo sapiens) (UniProt P00519+P11274); test: Inhibition of Bcr/Abl kinase tyrosine phosphorylation in human K562 cells after 1 hr by immunoblot analysis; assay type: cell-based
[4] = target: T2, Tyrosine-protein kinase ABL1 (Homo sapiens, UniProt P00519); test: Inhibition of Abl kinase tyrosine phosphorylation in human K562 cells after 1 hr by immunoblot analysis; assay type: cell-based
MCF7 [5] = test: Cytostatic activity against human MCF7 cells assessed as decrease in [3H]thymidine incorporation into DNA after 24 hrs by liquid scintillation counting analysis; assay type: functional, cell-based
[6] = target: T1, Bcr/Abl fusion protein (Homo sapiens); test: Inhibition of Bcr/Abl kinase in human K562 cells assessed as decrease in STAT5 phosphorylation at Tyr694 after 1 hr by immunoblot analysis; assay type: cell-based
MDA-MB-231 [7] = test: Cytostatic activity against human MDA-MB-231 cells assessed as decrease in [3H]thymidine incorporation into DNA after 24 hrs by liquid scintillation counting analysis; assay type: functional, cell-based
K562 [8] = test: Effect on cell cycle distribution in human K562 cells after 24 hrs by propidium iodide staining based flow cytometry; assay type: functional
[9] = target: Cyclin-dependent kinase 2/cyclin E1 (Homo sapiens, UniProt P24941); test: Inhibition of CDK2/cyclin E (unknown origin) expressed in Sf9 cells using histone H1 as substrate in presence of [gamma33P]ATP
[10] = target: Casein kinase II subunit alpha (Homo sapiens, UniProt P68400); test: Inhibition of CK2alpha1 (unknown origin) using casein as substrate in presence of [gamma33P]ATP
K562 [11] = test: Inhibition of tyrosine phosphorylation of protein with molecular weight between 40 and 60 kDa in human K562 cells after 1 hr by immunoblot analysis; assay type: functional, cell-based
MCF7 [12] = test: In vitro antiproliferative activity against human MCF7 cells assessed as decrease cell viability after 24 hrs by MTT assay; assay type: functional, cell-based; conditions: for IC50: MCF7, 24 h
[13] = target: T2, Tyrosine-protein kinase ABL1; test: Inhibition of recombinant Abl kinase (unknown origin) expressed in Sf9 cells using GGEAIYAAPFKK as substrate in presence of [gamma33P]ATP
CCRF-CEM = test: In vitro antiproliferative activity against human CCRF-CEM cells assessed as decrease in cell viability after 24 hrs by MTT assay; assay type: functional, cell-based
[14] = (§1) In vitro antiproliferative activity against human BV173 cells assessed as decrease in cell viability after 24 hrs by MTT assay; assay type: functional, cell-based; conditions: BV-173, 24 h
BV-173 = test: as §1; assay type: functional, cell-based
MDA-MB-231 [15] = test: In vitro antiproliferative activity against human MDA-MB-231 cells assessed as decrease in cell vaibility after 24 hrs by MTT assay; assay type: functional, cell-based; conditions: for IC50: MDA-MB-231, 24 h
HL-60 = test: In vitro antiproliferative activity against human HL60 cells assessed as decrease in cell viability after 24 hrs by MTT assay; assay type: functional, cell-based; conditions: for IC50: HL-60, 24 h
K562 [16] = test: In vitro antiproliferative activity against human K562 cells assessed as decrease in cell viability after 24 hrs by MTT assay; assay type: functional, cell-based; conditions: for IC50: K562, 24 h
K562 [17] = test: Antiproliferative activity against human K562 cells assessed as increase in number of cells with compromised cell membranes at 10 to 100 uM after 24 hrs by propidium iodide exclusion assay based flow cytometry; assay type: functional
K562 [18] = conditions: Homo sapiens, 10 uM
Description: Inhibition of tyrosine phosphorylation of protein with molecular weight between 40 and 60 kDa in human K562 cells at 10 uM after 1 hr by immunoblot analysis

MCF7 [19] = test: Ratio of IC50 for human MCF7 cells to IC50 for human K562 cells; assay type: functional
[20] = target: T1, Bcr/Abl fusion protein (Homo sapiens); test: Inhibition of Bcr/Abl kinase in human K562 cells assessed as decrease in CrkL phosphorylation at Tyr207 at 1 to 100 uM after 1 hr by immunoblot analysis; assay type: cell-based

T2 sequence (P00519 whole entry): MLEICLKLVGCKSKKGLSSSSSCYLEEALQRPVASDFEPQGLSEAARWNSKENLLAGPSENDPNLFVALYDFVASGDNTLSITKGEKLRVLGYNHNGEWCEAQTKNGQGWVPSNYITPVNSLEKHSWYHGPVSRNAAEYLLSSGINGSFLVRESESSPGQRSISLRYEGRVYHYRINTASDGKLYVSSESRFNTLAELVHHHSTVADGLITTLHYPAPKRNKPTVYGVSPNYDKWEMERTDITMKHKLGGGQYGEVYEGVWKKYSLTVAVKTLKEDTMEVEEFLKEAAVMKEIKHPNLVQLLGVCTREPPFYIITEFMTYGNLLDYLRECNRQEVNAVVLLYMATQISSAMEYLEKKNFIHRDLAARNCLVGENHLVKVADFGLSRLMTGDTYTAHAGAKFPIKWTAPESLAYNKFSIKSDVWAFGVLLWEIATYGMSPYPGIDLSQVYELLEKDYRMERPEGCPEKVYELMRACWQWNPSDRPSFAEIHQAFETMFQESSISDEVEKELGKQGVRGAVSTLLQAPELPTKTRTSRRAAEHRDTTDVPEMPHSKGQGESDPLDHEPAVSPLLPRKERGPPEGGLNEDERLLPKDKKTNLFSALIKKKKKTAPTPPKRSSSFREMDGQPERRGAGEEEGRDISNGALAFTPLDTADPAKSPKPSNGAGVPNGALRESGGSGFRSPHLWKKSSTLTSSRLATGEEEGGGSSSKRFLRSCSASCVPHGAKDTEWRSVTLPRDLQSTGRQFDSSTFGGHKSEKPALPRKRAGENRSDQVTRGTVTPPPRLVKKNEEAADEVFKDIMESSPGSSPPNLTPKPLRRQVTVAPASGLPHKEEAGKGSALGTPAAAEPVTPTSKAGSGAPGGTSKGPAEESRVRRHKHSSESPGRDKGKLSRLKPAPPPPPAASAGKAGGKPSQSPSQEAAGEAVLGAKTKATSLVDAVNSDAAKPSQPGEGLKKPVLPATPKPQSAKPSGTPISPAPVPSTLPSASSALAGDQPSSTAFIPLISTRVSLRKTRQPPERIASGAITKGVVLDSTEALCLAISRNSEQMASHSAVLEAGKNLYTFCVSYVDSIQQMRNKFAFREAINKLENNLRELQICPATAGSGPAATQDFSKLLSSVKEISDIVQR
T1 sequence (P00519 whole entry, looked up, the tested form may be a part): as the sequence (P00519 whole entry) above
T1 sequence (P11274 whole entry, looked up, the tested form may be a part): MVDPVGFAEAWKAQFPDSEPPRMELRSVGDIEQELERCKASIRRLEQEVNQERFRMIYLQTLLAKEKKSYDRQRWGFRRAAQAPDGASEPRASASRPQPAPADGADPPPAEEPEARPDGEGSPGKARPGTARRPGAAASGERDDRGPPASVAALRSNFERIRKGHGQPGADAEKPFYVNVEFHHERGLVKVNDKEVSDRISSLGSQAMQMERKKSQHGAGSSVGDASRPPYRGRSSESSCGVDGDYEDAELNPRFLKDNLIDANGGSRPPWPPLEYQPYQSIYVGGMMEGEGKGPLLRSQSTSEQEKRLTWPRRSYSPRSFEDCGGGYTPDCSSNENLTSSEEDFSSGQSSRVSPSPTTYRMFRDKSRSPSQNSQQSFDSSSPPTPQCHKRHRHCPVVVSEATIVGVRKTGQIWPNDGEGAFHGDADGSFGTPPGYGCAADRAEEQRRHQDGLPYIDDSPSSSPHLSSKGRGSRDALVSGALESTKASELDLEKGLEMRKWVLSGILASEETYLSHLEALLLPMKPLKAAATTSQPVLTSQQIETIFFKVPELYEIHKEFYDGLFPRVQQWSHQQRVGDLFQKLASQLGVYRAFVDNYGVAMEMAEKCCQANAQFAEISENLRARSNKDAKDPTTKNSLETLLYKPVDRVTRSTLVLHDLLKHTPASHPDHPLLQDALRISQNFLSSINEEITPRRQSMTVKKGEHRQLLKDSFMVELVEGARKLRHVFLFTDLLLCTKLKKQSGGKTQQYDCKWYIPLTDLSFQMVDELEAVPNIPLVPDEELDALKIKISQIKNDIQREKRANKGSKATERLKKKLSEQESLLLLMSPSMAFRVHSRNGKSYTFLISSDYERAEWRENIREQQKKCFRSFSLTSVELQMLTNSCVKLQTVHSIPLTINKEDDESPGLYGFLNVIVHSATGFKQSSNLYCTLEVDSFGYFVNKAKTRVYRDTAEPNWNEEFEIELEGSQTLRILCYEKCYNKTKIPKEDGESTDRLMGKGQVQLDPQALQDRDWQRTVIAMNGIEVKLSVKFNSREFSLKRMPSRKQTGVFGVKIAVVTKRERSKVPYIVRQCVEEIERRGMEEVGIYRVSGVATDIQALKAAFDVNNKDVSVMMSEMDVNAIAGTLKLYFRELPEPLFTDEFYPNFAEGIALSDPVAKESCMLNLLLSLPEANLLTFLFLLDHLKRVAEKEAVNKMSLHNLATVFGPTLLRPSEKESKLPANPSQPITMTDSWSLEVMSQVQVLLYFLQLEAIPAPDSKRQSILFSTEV
Sequence of Casein kinase II subunit alpha (P68400 whole entry): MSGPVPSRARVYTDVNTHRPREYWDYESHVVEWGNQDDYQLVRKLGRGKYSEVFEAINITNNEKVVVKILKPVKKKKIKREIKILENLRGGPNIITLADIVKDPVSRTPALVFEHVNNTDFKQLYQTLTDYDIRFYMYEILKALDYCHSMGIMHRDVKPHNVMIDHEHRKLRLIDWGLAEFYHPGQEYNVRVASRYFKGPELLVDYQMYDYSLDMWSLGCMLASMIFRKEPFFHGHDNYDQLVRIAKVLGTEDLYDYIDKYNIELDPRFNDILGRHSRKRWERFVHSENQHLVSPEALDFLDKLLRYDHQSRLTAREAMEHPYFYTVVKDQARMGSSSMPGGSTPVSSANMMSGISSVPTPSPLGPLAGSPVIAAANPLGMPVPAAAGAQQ

Row | inhibition [3] | inhibition [4] | IC50 (MCF7 [5]) [µM] | inhibition [6] | IC50 (MDA-MB-231 [7]) [µM] | IC50 [9] [µM] | IC50 [10] [µM] | IC50 (MCF7 [12]) [µM] | IC50 [13] [µM] | IC50 (CCRF-CEM) [µM] | IC50 (K562 [16]) [µM] | SMILES | Activity (K562 [2]) | inhibition (MCF7 [5]) | inhibition (MDA-MB-231 [7]) | Activity (K562 [8]) | inhibition (K562 [11]) | inhibition (MCF7 [12]) | inhibition (CCRF-CEM) | IC50 [14] [µM] | inhibition (BV-173) | also measured
1 | Dose-dependent effect | Dose-dependent effect | 123 | Dose-dependent effect | 150 | > 50 | > 50 | 140 | 5.9 | 36 | 21 | Cc1nn(C)c2nnc(Nc3ccc(S(=O)(=O)N4CCCNCC4)cc3)nc12 | Active | Dose-dependent effect | Dose-dependent effect | inactive | Dose-dependent effect | Dose-dependent effect | Dose-dependent effect | 22 | Dose-dependent effect | Ratio IC50 (MDA-MB-231 [1]): 7; inhibition (MDA-MB-231 [15]): Dose-dependent effect; IC50 (MDA-MB-231 [15]): 155 µM; inhibition (HL-60): Dose-dependent effect; IC50 (HL-60; read-out: IC50): 38 µM; inhibition (K562 [16]): Dose-dependent effect; Activity (K562 [17]): Active
2 |  |  |  |  |  |  |  |  |  | 45 | 13 | Cc1ccc(NC(=O)c2ccc(CN3CCN(C)CC3)cc2)cc1Nc1nccc(-c2cccnc2)n1 [IMATINIB] |  |  |  |  |  |  |  | 20 |  | inhibition (K562 [18]): Active; IC50 (HL-60): 55 µM
3 | Dose-dependent effect | Dose-dependent effect | 170 | Dose-dependent effect | 103 | > 25 | > 25 | 150 | 5.8 | 20 | 27 | Cc1nn(C)c2nnc(Nc3ccc(S(=O)(=O)N4CCNCC4)cc3)nc12 | Active | Dose-dependent effect | Dose-dependent effect | inactive | Dose-dependent effect | Dose-dependent effect | Dose-dependent effect | 22 | Dose-dependent effect | Ratio IC50 (MCF7 [19]): 5; inhibition [20]: Active; inhibition (MDA-MB-231 [15]): Dose-dependent effect; IC50 (MDA-MB-231 [15]): 130 µM; inhibition (HL-60): Dose-dependent effect; IC50 (HL-60; read-out: IC50): 55 µM; inhibition (K562 [16]): Dose-dependent effect; Activity (K562 [17]): Active
